Test results as given in patent publication US5206238A, “Cholecystokinin antagonists” (Merck & Co., Inc., priority 1992, dated 1993).

Columns and labels:
[1] = system: DBA2 mice; experiment: black/white exploration test (animal model of anxiety); type: in vivo; conditions: for active dose range: anxiolytic properties in mice
Text: The black/white exploration test [Crawley et al. Pharmacology, Biochemistry and Behav. 13, 167 (1980)] is a simple animal model of anxiety. Rodents placed in a two compartment box which consists of a brightly lit, white painted side and a dimly lit, black painted side, display a marked preference for the black side of the apparatus. This behavior is caused by the aversive properties of the brightly lit, white painted section. Classical anxiolytic drugs [such as diazepam, see Crawley, supra] and novel anxiolytic drugs [such as 5HT3 antagonists, see Jones et al. Br. J. Pharm.
A. Naive male DBA2 mice (25-30) were housed on a reversed light/dark cycle and tested during the dark phase of the cycle under dim red light. The apparatus consisted of an open topped box (40 cm long×27 cm wide×27 cm high) divided into a small area (2/5) and a large area (3/5) by a partition that extended 20 cm above the walls. There was a 7.5×7.5 cm opening in the partition at floor level. The small compartment was painted black and the large compartment white. The floor of each compartment was marked into 9 cm squares. The white compartment was illuminated by a 100 W tungsten bulb 17 cm above the box and the black compartment by a similarly placed 60 W red bulb.
Animals that had been injected with drug or vehicle were placed individually into the center of the white area and their behavior observed during a 5 minute period by remote video recording. Four behavioral parameters were recorded every minute: the number of exploratory rears in the white and black sections, the number of line crossings in the black and white sections, the number of transitions between the two sections and the time spent in the black and white sections. Animals were tested in treatment groups of 8-10 and vehicle controls were run on each test day. Data were analysed by ANOVA and Dunnetts test.

[2] = system: humans; conditions: reported studies; cited from earlier work
[3] = system: DBA2 mice; conditions: rodents, literature (Crawley); cited from earlier work
[4] = system: Sprague Dawley rats; experiment: exploratory/locomotor activity in automated activity cages; type: in vivo, rat
Method: B. The effects of CCK-8 and compound A on the exploratory behavior of the rat were examined in automated activity cages and by direct observation. […] [See Crawley, Pharm. Biochem & Behav. 20, 23-27 (1984).]
Male Sprague Dawley rats were injected ([…].) with CCK-8 and immediately placed in automated activity cages. Activity was measured for 30 minutes past injection.
Male SD rats were injected (s.c.) with the CCK antagonist compound A (0.0001-10 mg/kg) and immediately placed in the automated activity cages.

[5] = system: rats; experiment: direct observation of motoric behaviors in a novel environment (perspex cage); type: in vivo, rat; conditions: 0.1 mg/kg, 15 minute period 15 minutes after treatment
Method: In order to assess further the effect of Compound A on exploration in a novel environment, the motoric hehaviors of rats placed in a perspex cage was recorded by direct observation for a 15 minute period 15 minutes after treatment with Compound A.
Experimenters (unaware of the treatments the animals had received) recorded the frequency and duration of rearing, sniffing, grooming and cage crossing using a keypad interfaced to a BBC microcomputer.

[6] = system: Sprague Dawley rats; conditions: cited from earlier work

With `Cc1cccc(NC(=O)N[C@@H]2N=C(c3ccccc3)c3ccccc3N(C)C2=O)c1` [Compound B, (R)-N-(2,3-dihydro-1-methyl-2-oxo-5-phenyl-1H-1,4-benzodiazepin-3-yl)-N'-(3-methylphenyl)urea] as the molecule, how does the active dose range [1] read?
The active dose range was 0.005 to 0.05 µg/kg.

What about the “difference in time spent in the black and white side” value ([1]; dose of 0.005 ug/kg, male DBA2 mice) of the same molecule?
Its value is “decreased”.

And the “preference for rearing in the black side” value ([1]; dose of 0.05 ug/kg, male DBA2 mice)?
Its value is “abolished”.

For CCK-4, which induction of panic [2] is on record?
The induction of panic was “induce panic”.

With `CN1C(=O)CN=C(c2ccccc2)c2cc(Cl)ccc21` [diazepam] as the molecule, how does the “preference of the animal for the black dimly lit side” value [3] read?
The value was “decrease the preference”.

With `CN1C(=O)[C@@H](NC(=O)c2cc3ccccc3[nH]2)N=C(c2ccccc2)c2ccccc21` [Compound A, 3(S)-(-)-1,3-dihydro-3-(2-indolecarbonylamino)-1-methyl-5-phenyl-2H-1,4-benzodiazepin-2-one] as the molecule, how does the “preference for locomotion (line crossings) in the black side” value ([1]; 0.5, 5.0 and 500 ug/kg, male DBA2 mice) read?
Its value is “abolished”.

What about the “difference in time spent in the black and white side” value ([1]; 5.0 and 500 ug/kg, male DBA2 mice) of the same molecule?
Its value is “abolished”.

What about the active dose range [1] of the same molecule?
The active dose range was 0.05 to 5.0 µg/kg.

And the “preference for rearing in the black side” value ([1]; doses of 0.05, 0.5, 5.0 and 500 ug/kg, male DBA2 mice)?
The value was “significantly decreased”.

And the “habituation and period of exploratory activity” value ([4]; 0.0001-10 mg/kg s.c.)?
The value was “delayed habituation and prolonged the period of exploratory activity”.

And the “levels of activity at 25 minutes” value ([4]; 0.1 mg/kg s.c., 25 minutes)?
Its value is “significantly above controls”.

And the “effect on activity at 25 minutes” value ([4]; higher and lower doses than 0.1 mg/kg s.c. (bell-shaped dose response))?
Its value is “no significant effect”.

What about the cage crossing [5] of the same molecule?
Its cage crossing is “significantly increased”.

What about the rearing [5] of the same molecule?
The rearing was “significantly increased”.

What about the sniffing [5] of the same molecule?
The sniffing was “significantly increased”.

With “CCK-8: carboxylterminal octapeptide of CCK-33, a naturally-occurring neuropeptide and the minimum fully active sequence” as the molecule, how does the locomotor activity ([4]; 0.5-16 μg/kg i.p., 30 minutes past injection, novel environment) read?
The locomotor activity was “dose-dependently decreased”.

And the “exploratory behavior in a novel environment” value ([6]; exogenous CCK-8, literature (Crawley))?
Its value is “decreases exploratory behavior”.

What about the induction of panic [2] of the same molecule?
The induction of panic was “induced gastrointestinal effects but not panic symptoms”.

With `CNC1=Nc2ccc(Cl)cc2C(c2ccccc2)=[N+]([O-])C1` [chlordiazepoxide] as the molecule, how does the “spontaneous locomotor activity in a novel environment” value ([6]; literature (McElroy et al.)) read?
The value was “increases spontaneous locomotor activity”.
